How the values were obtained:
[1] = biological target: T1, Nucleotide-binding oligomerization domain-containing protein 1 (Homo sapiens, UniProt Q9Y239); assay: Antagonist activity at recombinant human NOD1 expressed in HEK293 cells assessed as inhibition of C12-iE-DAP-induced IL8 release measured after 24 hrs by HTRF assay; type: cell-based
T1 sequence (Q9Y239 whole entry): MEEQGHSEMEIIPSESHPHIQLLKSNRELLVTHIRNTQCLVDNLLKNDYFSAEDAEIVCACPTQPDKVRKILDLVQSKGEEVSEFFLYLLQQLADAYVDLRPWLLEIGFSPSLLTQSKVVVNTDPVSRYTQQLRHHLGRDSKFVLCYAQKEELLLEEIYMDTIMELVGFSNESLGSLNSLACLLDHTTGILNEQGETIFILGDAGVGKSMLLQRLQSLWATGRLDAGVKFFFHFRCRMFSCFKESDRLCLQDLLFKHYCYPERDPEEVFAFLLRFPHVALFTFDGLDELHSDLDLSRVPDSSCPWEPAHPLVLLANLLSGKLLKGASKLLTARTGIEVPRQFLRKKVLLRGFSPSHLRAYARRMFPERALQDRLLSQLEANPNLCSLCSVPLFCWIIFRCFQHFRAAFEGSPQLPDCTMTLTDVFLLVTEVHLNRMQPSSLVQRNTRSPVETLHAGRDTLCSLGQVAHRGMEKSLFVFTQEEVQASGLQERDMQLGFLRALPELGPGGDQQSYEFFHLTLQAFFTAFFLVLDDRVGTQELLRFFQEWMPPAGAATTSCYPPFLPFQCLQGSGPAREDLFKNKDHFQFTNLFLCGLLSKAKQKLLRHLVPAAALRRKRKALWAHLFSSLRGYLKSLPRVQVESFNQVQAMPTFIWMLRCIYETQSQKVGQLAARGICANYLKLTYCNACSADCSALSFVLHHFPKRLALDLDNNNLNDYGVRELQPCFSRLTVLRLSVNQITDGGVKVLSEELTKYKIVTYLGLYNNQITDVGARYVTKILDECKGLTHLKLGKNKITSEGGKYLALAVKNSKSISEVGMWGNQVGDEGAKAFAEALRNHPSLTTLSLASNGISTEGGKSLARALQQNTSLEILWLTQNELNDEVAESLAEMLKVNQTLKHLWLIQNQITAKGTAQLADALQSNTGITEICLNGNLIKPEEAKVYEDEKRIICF

[2] = biological target: Nucleotide-binding oligomerization domain-containing protein 2 (Homo sapiens, UniProt Q9HC29); assay: Antagonist activity at recombinant human NOD2 expressed in HEK293 cells assessed as inhibition of MDP-induced IL8 release measured after 24 hrs by HTRF assay; type: cell-based
Sequence of Nucleotide-binding oligomerization domain-containing protein 2 (Q9HC29 whole entry, the tested form may be a part): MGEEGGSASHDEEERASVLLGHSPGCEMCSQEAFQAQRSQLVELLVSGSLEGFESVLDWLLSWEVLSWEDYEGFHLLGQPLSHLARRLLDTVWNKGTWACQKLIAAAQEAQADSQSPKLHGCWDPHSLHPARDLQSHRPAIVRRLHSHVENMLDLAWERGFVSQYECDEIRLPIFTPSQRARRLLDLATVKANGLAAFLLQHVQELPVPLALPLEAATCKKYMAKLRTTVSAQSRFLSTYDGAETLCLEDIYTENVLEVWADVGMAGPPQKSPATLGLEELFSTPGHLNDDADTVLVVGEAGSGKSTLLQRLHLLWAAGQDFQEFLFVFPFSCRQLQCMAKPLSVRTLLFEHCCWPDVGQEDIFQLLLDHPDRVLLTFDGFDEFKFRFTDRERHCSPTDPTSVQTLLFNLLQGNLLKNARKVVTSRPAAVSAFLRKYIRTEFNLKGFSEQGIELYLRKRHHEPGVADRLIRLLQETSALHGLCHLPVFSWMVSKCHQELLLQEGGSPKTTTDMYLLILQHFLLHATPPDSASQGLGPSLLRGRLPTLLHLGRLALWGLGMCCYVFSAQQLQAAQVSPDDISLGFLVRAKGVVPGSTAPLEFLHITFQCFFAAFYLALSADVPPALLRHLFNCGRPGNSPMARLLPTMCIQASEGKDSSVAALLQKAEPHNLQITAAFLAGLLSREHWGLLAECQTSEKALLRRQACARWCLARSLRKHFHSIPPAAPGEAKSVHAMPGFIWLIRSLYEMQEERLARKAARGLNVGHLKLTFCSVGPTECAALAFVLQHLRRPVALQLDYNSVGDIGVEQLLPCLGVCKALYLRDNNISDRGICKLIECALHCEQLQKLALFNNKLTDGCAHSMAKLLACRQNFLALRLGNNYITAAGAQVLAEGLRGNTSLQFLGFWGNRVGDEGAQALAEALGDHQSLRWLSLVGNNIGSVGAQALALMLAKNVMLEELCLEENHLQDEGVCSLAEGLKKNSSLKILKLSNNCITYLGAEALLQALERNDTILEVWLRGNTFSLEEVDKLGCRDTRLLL

SMILES: O=C(Cn1c(CCNC(=O)c2ccccc2)nc2ccccc21)Nc1ccc2c(c1)CCC2
- IC50 [1]: > 50 µM
- IC50 [2]: 3.3 µM

Reference: ChEMBL document CHEMBL4706575, “Nonpeptidic quinazolinone derivatives as dual nucleotide-binding oligomerization domain-like receptor 1/2 antagonists for adjuvant cancer chemotherapy” (Eur J Med Chem, 2020)
